Where a name gives a salt, the structure may show the parent alone.
Key:
[1] = tested on: hyperperméabilité vasculaire induite par le zymosan; assay: Vascular hyperpermeability induced by zymosan (extravasation of albumin or Evans blue); assay type: in vivo; conditions: oral administration of 1-20 mg/kg
Description: (§1) Pour l'étude in vivo, ils sont administrés par voie intra-veineuse sous forme de solution aqueuse pure, par voie intrapéritonéale sous forme de solution aqueuse contenant ou non du DMSO ou par voie orale en solution ou en suspension dans la carboxyméthylcellulose ou dans une solution aqueuse composée contenant du Tween^(R) et dans certains cas du DMSO (diméthylsulfoxyde).
La perméabilité vasculaire est étudiée in vivo et in vitro par la mesure de l'extravasation d'albumine ou de colorant liant l'albumine (Bleu Evans). In vivo, l'hyperperméabilité est induite par l'injection d'une solution d'histamine, de bradykinine ou de zymosan. Les modèles in vitro permettent de réaliser des hyperpressions (sur un territoire vasculaire isolé) et/ou des réactions vasculaires inflammatoires.
A titre illustratif, les composés des exemples 1, 3, 6 et 9 inhibent l'hyperperméabilité vasculaire induite par le zymosan après administration orale de 1-20 mg/kg.

[2] = tested on: veines saphènes de lapin; assay: Contraction of isolated rabbit saphenous vein rings produced by KCl (depolarisation); conditions: for augmentent les contractions des veines saphènes de lapin produites par le KCl: KCl 40 mM, compounds 10 nM à 30 mM; for EC50: increase of contractions produced by KCl 40 mM, read-out: DE₅₀
Description: (§2) Pour l'étude in vitro, les composés sont solubilisés en solution aqueuse pure ou contenant du DMSO ou de l'alcool.
L'effet contractile est mesuré in vitro : • par la force de contraction développée par des anneaux vasculaires quiescents ou stimulés (soit électriquement soit par des agents physiologiques) et maintenus dans des conditions isométriques, • par la pression développée par des réseaux vasculaires perfusés à débit constant.
Les composés de l'invention et leurs sels éventuels augmentent la contraction des veines saphènes animales produite par la noradrénaline et la dépolarisation (solution hyperpotassique) sans affecter, dans la majorité des cas, les réponses contractiles artérielles. A titre illustratif, les composés des exemples 2, 3, 4, 7, et 9 (10 nM à 30 mM) augmentent de plus de 40 % (DE₅₀ ± 0,3 microM) les contractions des veines saphènes de lapin produites par le KCl (40 mM).

[3] = tested on: pleurésie chez le rat; assay: Carrageenan-induced pleurisy (oedema and leukocyte migration); assay type: in vivo; conditions: 5 mg/kg i.p. given twice, 6 hours after carrageenan injection into the pleural cavity
Description: as §1
L'activité antiinflammatoire est démontrée par la mesure de l'inhibition de l'oedème et de la migration leucocytaire après induction d'une pleurésie chez le rat par injection de carragénine dans la cavité pleurale (Almeida et col., J. Pharmacol. Exp. Therap., 1980, 214 : 74).
Le composé des exemples 3 et 4 administrés deux fois en i.p. à la dose de 5 mg/kg inhibent l'oedème et la migration leucocytaire dans la cavité pleurale, 6 heures après injection de carragénine dans le modèle de la pleurésie chez le rat.

[4] = Free radical scavenging with DPPH as stable free radical; assay type: physicochemical; conditions: DPPH model, in vitro
Description: as §2
L'effet "piégeur de radicaux libres" global est étudié in vitro par un modèle utilisant le 1,1-diphényl-2-picrylhydrazyl (DPPH) comme radical libre stable, méthode dérivée de celle décrite par Lamaison et col., Plantes Médic. et Phytothérapie, XXII, 1988, 231-234.

Row | EC50 [2] [nM] | SMILES | hyperperméabilité vasculaire induite par le zymosan [1] | augmentent les contractions des veines saphènes de lapin produites par le KCl [2] [%] | migration leucocytaire dans la cavité pleurale [3] | oedème [3] | effet antiradicalaire [4]
1 | – | O=C(NN=c1c(=O)c2ccccc2c1=O)n1cccc1 [exemple 1, 2.3-Dihydro-1.3-dioxo-2-(pyrrol-1-yl-carbonylhydrazono)-1H-indene] | inhibent | – | – | – | –
2 | ~300 | O=C(NN=c1c(=O)c2ccccc2c1=O)c1cccnc1 [exemple 2, 2.3-Dihydro-1.3-dioxo-2-[(3-pyridyl)carbonylhydrazono]-1H-indene, chlorhydrate] | – | > 40 | – | – | –
3 | ~300 | Nc1ccc(C(=O)NN=c2c(=O)c3ccccc3c2=O)cc1 [exemple 3, 2-(4-Aminophenylcarbonylhydrazono)-2.3-dihydro-1.3-dioxo-1H-indene, chlorhydrate] | inhibent | > 40 | inhibent | inhibent | –
4 | – | O=C(NN=c1c(=O)c2ccccc2c1=O)c1cccnc1 [exemple 6, 2.3-Dihydro-1.3-dioxo-2-[(3-pyridyl)carbonylhydrazono]-1H-indene, maleate] | inhibent | – | – | – | présentent un effet antiradicalaire

From patent EP0650958A1, “Hydrazones of indane-triones and their application in therapy” (LABORATOIRE INNOTHERA Société Anonyme, priority 1993, dated 1995)
